Experimental data taken from PMC9048745, “Physicochemical investigation of a novel curcumin diethyl γ-aminobutyrate, a carbamate ester prodrug of curcumin with enhanced anti-neuroinflammatory activity” (PLoS ONE, 2022).

System: BV-2 microglial cells
Assay: In vitro cellular uptake (fluorescence microscopy)
Assay type: cell-based, murine
Details: BV-2 cells, 4-h incubation, 20 μM and 100 μM, compared with curcumin
Method: BV-2 microglial cells were plated in a 96-well plate (Costar, NY, USA) at a density of 10,000 cells/well for 24 h. The cells were incubated in DMEM media without phenol red for 4 h in the presence of curcumin and CUR-2GE at concentrations of 20 μM and 100 μM. Then, the sample was washed with PBS and the fluorescence intensity was measured using a fluorescence microscope (Olympus IX51 inverted microscope, Tokyo, Japan).

CCOC(=O)CCCNC(=O)Oc1ccc(/C=C/C(=O)/C=C(O)/C=C/c2ccc(OC(=O)NCCCC(=O)OCC)c(OC)c2)cc1OC [CUR-2GE, Curcumin diethyl γ-aminobutyrate]
cellular uptake (fluorescence intensity): higher fluorescence intensity than curcumin
